# In US7238213B2, “Cell-based assays employing voltage and calcium dyes” (priority 2001, dated 2007):
# Legend:
# DRD2 receptor = DRD2 receptor (Homo sapiens, UniProt P14416)
# Excerpt: This kind of assay is figuratively dubbed as “upside down assay”, as the activation of receptor brings down the fluorescence signal from a highly activated level.
# [1] = target: Gi-coupled D2 dopamine receptor (Homo sapiens, UniProt P14416); settings: 300 nM, FIG. 29
# Gi-coupled D2 dopamine receptor, sequence (P14416 whole entry): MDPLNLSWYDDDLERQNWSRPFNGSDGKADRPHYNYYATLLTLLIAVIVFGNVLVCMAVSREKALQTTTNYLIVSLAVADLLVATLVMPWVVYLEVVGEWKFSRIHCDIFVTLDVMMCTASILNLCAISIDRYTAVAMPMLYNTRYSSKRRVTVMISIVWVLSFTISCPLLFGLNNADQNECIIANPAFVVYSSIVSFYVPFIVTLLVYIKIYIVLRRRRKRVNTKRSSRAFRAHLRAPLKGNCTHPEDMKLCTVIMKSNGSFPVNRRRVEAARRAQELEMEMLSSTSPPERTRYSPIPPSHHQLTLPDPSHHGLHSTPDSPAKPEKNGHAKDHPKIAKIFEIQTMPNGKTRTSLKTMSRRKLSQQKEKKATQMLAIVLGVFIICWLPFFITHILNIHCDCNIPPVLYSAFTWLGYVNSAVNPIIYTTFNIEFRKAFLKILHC
# DRD2 receptor, sequence (P14416 whole entry): as above
smiles,measurement,setting,value
NCCc1ccc(O)c(O)c1 [dopamine],time to maximal response,"DRD2 receptor; 1 μM dopamine, 96-well, FLEXstation",about 400 seconds
same,time for forskolin-induced fluorescence signal to nearly return to the pre-forskolin level,"DRD2 receptor; no PDE inhibitor, FIG. 28A",≤ 7 min
same,calcium response,[1],does not affect calcium levels
